Molecules are shown by their SMILES. Entries after “also recorded” stand apart in the source; their conditions may differ.

For this assay, the system named is gastric lesions produced by the ethanol/HCl mixture. Nature of the assay: ethanol/HCl mixture-induced gastric lesion test in rats. It counts as in vivo, Male Sprague Dawley rats. The settings on record: oral gavage 30 min before 60% ethanol in 150 mM HCl, lesions scored 60 min after. On the procedure: The ethanol/HCl mixture-induced gastric lesion test in rats described by Takeuchi et al, J. Pharmacol. Exp. Ther., 286: 115-121 (1998), was used to evaluate the gastric lesion activity. Male Sprague Dawley rats (Charles River Laboratories, Wilmington, Mass.) weighing 230-250 g were used for the experiments. The rats were housed with laboratory chow and water ad libitum prior to the study. The rats were fasted for 24 hours with free access to water and then dosed by oral gavage with vehicle or with the test compounds given at a volume of 0.5 ml/100 g body weight. Thirty minutes after oral dosing all the rats received 1 ml of a solution of 60% ethanol in 150 mM HCl intragastrically. Food was withheld after dosing. Sixty minutes after ethanol/HCl, rats were euthanized by pre-charged CO2. The stomachs were dissected along the greater curvature, washed with a directed stream of 0.9% saline and pinned open on a sylgard based petri dish for examination of the hemorrhagic lesions. Gastric lesion score was expressed in mm and calculated by summing the length of each lesion as described by Al-Ghamdi et al, J. Int. Med. Res., 19: 2242 (1991). Results are expressed as the mean±standard error of the mean. Statistical analysis were conducted using ANOVA test followed by a Student-Newman-Keuls post-hoc test using the Abacus Concepts, Super Anova computer program (Abacus Concepts, Inc., Berkeley, Calif.).

In the case of `CN/C(=N/CCSCc1nc[nH]c1C)NC#N` [Cimetidine, reference compound], the “inhibition of the formation of gastric lesions (gastric lesion score) relative to vehicle alone” value is, setting by setting: (160 μmol/kg) “failed to significantly inhibit the formation of gastric lesions; also recorded: did not significantly inhibit the formation of gastric lesions”; (320 μmol/kg) “failed to significantly inhibit the formation of gastric lesions; also recorded: did not significantly inhibit the formation of gastric lesions”.
For `CNC(=NCCSCc1ncn(C(=O)CC2(SN=O)C3CC4CC(C3)CC2C4)c1C)NC#N` (stereo not shown) [Example 1, (2Z)-2-aza-3-(methylamino)-3-((2-((5-methyl-1-(2-(2-(nitrosothio)adamantan-2-yl)acetyl)imidazol-4-yl)methylthio)ethyl)amino)prop-2-enenitrile], the “inhibition of the formation of gastric lesions (gastric lesion score) relative to vehicle alone” value is, setting by setting: (160 μmol/kg) “significantly inhibited the formation of gastric lesions”; (320 μmol/kg) “significantly inhibited the formation of gastric lesions”.
